Assay results reported in patent publication US20230256094A1, “CANCER RADIOSENSITIZATION BY IN SITU FORMATION OF GOLD NANOPARTICLES AND/OR GOLD NANOCLUSTERS” (BOARD OF REGENTS, THE UNIVERSITY OF TEXAS SYSTEM, priority 2020, published 2023).

What was measured:
thyroid cancer = assay: gamma H2AX foci after x-ray irradiation, thyroid cancer; format: cell-based; settings: 24 hours after x-ray irradiation, 0 or 8 Gy, 0.20 mM
From the text: Treatments are in full cell media.

[1] = tested on: pancreatic cancer cells (LTPA) vs pancreatic non-cancerous cells (MS1); assay: Confocal fluorescence imaging of intracellular GNC formation, cancerous vs non-cancerous cells; format: cell-based
Description: Hoechst 33342 stain was used for nuclear contrast. Red channel was used for detection of GNCs with 610 nm emission and 561 nm laser excitation. Scale bars are 25 μm.
Our initial evaluation of intracellular gold nanocluster formation was performed with pancreatic cancer cells (LTPA) and pancreatic non-cancerous cells (MS1) (FIG. 6A-6B). […] Live cell nuclear stain, Hoechst 33342, was used to define the location of nuclei.
Radiosensitization due to intracellular GNC formation (i.e., delivery of Au^3+) was compared between cancerous and non-cancerous cells using a standard clonal assay. For radiosensitization, cells were incubated with 0.1 mM of buffered chloroauric acid in cell culture media for 24 hours. Then, the cells were lifted and plated in 30 mm culture dishes at optimized cell densities for observation of colony formation following irradiation with X-rays at dosages ranging from 0 to 8 Gy (XRAD SmART). […] The radiosensitization results correlated well with the fluorescence images showing greater production of GNCs by cancerous cells (FIG. 6A-6B). For LTPA pancreatic cancer cells the surviving fraction values decreased by a factor of 2.3x and 3.5x for radiation of 4 Gy and 6 Gy, respectively, in cells treated with gold atoms compared to untreated control (FIG. 6B). […]

PANC1 pancreatic cancer = assay: NADP(H) assay after irradiation; format: cell-based, human; settings: 24 hr post-irradiation
Description: (§1) FIG. 23 reports on a mechanistic study of radiosensitization quantifying total NADP through NADP assay measured at 0, 1, and 24 hours, resulting from 24 hour, 0.20 mM Au^3+ treatments (right four bars) compared against non-treated (left four bars) combined with either 0 Gy or 8 Gy x-ray irradiation. Treatments are in full cell media to PANC1 pancreatic cancer.
as §1, with “24” for “23”, “the ratio of NADP^+/NADPH” for “total NADP”, “(right)” for “(right four bars)”, “(left)” for “(left four bars)”
Further, we characterized the mechanisms of radiosensitization through (i) quantification of double stranded DNA breaks via y-H2AX Foci (FIG. 21), (ii) mitochondrial polarization via JC-1 assay (FIG. 22), (iii) NADP total (FIG. 23) and NADP:NADPH ratio (FIG. 24) via NADP(H) assay, and (iv) peroxidation production via TBARS assay (FIG. 25).

[2] = tested on: pancreatic noncancerous cells (HPDE); assay: Confocal fluorescence imaging of in situ GNC synthesis; format: cell-based; settings: 1 mM, 24 hours, 561 nm excitation, 610 nm emission
Description: FIG. 4 presents fluorescence confocal images of non-cancerous (HPDE) and cancerous (MIAPaCa2) pancreatic cells treated with either 1 mM of Au^3+ gold ions or premade albumin-GNCs at 1 mM Au^0 for 24 hours. (From left to right) Cells: untreated; treated with albumin-GNCs; treated with Au^3+ gold ions. […] The strong red fluorescence in cancer cells indicated intracellular synthesis of GNCs from gold ions. Scale bars are 25 μm.
We compared in situ synthesis of GNCs by pancreatic cancer cells (MIAPACA2) and pancreatic noncancerous cells (HPDE) (FIG. 4). Confocal fluorescence images were obtained using a Leica TCS SP8 confocal microscope with 561 nm excitation and 610 nm emission optimized for detection of GNCs.

With `[Au+3].[Cl-].[Cl-].[Cl-].[Cl-].[H+]` [Au^3+, chloroauric acid] the “radiosensitization via induced double stranded DNA breaks (gamma H2AX foci)” value (thyroid cancer) was “evidence of radiosensitization via induced double stranded DNA breaks”, the “GNC formation in cancerous cells as compared to non-cancerous cells” value [1] was “striking increase in GNC formation” and the “NADP total lower than for non-treated cells” value (PANC1 pancreatic cancer) was about 43%. The “NADP:NADPH ratio larger than for non-treated cells” value (PANC1 pancreatic cancer) was 181% and the “GNC fluorescence / GNC formation” value [2] was “only sparsely seen”.
